Data on 19 compounds can be found in patent US8785436B2, “1,3-oxazines as BACE 1 and/or BACE2 inhibitors” (Hoffmann-La Roche Inc., priority 2011, dated 2014).

One test addresses T1, BACE1 (Homo sapiens, UniProt P56817).
T1 construct: Human HEK293 cells which are stably transfected with a vector expressing a cDNA of the human APP wt gene (APP695); endogenous in cells; host or cells: HEK293 cells stably expressing human APP695 wt
Description: Cellular Aβ-lowering assay b) (Abeta 40 AlphaLISA, HEK293 APP cells). The test is classed as cell-based. Conditions: 18-20 hrs incubation, read-out: BACE1 cell act. Aβ40 IC50. The protocol: Cellular Aβ-Lowering Assay:
b) Alternatively, the Abeta 40 AlphaLISA Assay can be used. The HEK293 APP cells were seeded in 96 well Microtiter plates in cell culture medium (Iscove's, plus 10% (v/v) fetal bovine serum, penicillin/streptomycin) to about 80% confluency and the compounds were added at a 3× concentration in 1/3 volume of culture medium (final DMSO concentration was kept at 1% v/v). After 18-20 hrs incubation at 37° C. and 5% CO2 in a humidified incubator, the culture supernatants were harvested for the determination of Aβ 40 concentrations using Perkin-Elmer Human Amyloid beta 1-40 (high specificity) Kit (Cat# AL275C).
In a Perkin-Elmer White Optiplate-384 (Cat#6007290), 2 ul culture supernatants were combined with 2 μl of a 10× AlphaLISA Anti-hAβ Acceptor beads+Biotinylated Antibody Anti-Aβ 1-40 Mix (50 μg/mL/5 nM). After 1 hour room temperature incubation, 16 μl of a 1.25× preparation of Streptavidin (SA) Donor beads (25 μg/mL) were added and incubated for 30 minutes in the Dark. Light Emission at 615 nm was then recorded using EnVision-Alpha Reader. Levels of Aβ 40 in the culture supernatants were calculated as percentage of maximum signal (cells treated with 1% DMSO without inhibitor). The IC50 values were calculated using the Excel XLfit software.

A further test has as its target T2, BACE2 (Rattus norvegicus, UniProt Q6IE75).
T2 construct: endogenous cellular BACE2 in the Ins1e rat cell line; endogenous in cells; host or cells: INS-TMEM27 (INS1e-derived rat cell line with TetOn-inducible full-length hTMEM27)
T2 sequence (Q6IE75 63-514): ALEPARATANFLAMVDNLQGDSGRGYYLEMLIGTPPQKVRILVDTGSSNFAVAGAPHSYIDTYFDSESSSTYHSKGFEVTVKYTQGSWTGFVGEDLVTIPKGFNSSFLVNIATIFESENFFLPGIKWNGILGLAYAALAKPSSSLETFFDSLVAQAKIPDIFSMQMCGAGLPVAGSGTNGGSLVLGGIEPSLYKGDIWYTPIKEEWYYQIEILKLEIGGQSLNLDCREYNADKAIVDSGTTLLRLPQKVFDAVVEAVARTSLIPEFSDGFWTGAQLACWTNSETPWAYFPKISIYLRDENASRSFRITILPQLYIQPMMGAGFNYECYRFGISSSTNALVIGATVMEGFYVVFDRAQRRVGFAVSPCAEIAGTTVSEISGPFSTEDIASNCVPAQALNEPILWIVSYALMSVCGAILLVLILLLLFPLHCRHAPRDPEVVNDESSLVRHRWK
Description: BACE inhibition by measuring cellular TMEM27 cleavage (INS-TMEM27 cells, ELISA). Conditions: INS-TMEM27 (Ins1e rat) cells, shed human TMEM27 by ELISA; read-out: BACE2 cell act. IC50. The test is classed as cell-based. The source says:
Assay for BACE Inhibition by Measuring Cellular TMEM27 Cleavage:
The assay uses the principle of inhibition of human TMEM27 cleavage by endogenous cellular BACE2 in the Ins1e rat cell line and shedding from the cell surface into the culture medium, followed by detection in an ELISA assay Inhibition of BACE2 prevents the cleavage and shedding in a dose-dependent manner.
The stable cell line “INS-TMEM27” represents an INS1e-derived cell line with inducible expression (using the TetOn system) of full-length hTMEM27 in a doxycycline-dependent manner. The cells are cultured throughout the experiment in RPMI1640+Glutamax (Invitrogen) Penicillin/Streptomycin, 10% Fetal bovine serum, […], […], 100 micrograms/ml G418 and 100 microgram/ml hygromycin and are grown inadherent culture at 37° C. in a standard CO2 cell culture incubator.
INS-TMEM27 cells are seeded in 96-well plates. After 2 days in culture, BACE2 inhibitor is added in a range of concentrations as required by the assay and after a further two hours, doxycycline is added to a final concentration of 500 ng/ml. The cells are incubated for a further 46 hours and the supernatant harvested for detection of shed TMEM27.
An ELISA assay (using a pair of mouse anti-human-TMEM27 antibodies, raised against the extracellular domain of TMEM27) is used for detection of TMEM27 in the culture medium. An EC50 for BACE2 inhibition is calculated using the ELISA readout for each inhibitor concentration with standard curve-fitting software such as XLFit for the Excel spreadsheet program.
Background: ELISA stands for enzyme-linked immunosorbent assay.

The structures appear in SMILES notation. pIC50: −log10 of the molar value. Where a name gives a salt, the structure may show the parent alone.

A word on the pIC50: it is −log10 of the IC50, conventionally taken in molar units.

T1 sequence (P56817 46-501): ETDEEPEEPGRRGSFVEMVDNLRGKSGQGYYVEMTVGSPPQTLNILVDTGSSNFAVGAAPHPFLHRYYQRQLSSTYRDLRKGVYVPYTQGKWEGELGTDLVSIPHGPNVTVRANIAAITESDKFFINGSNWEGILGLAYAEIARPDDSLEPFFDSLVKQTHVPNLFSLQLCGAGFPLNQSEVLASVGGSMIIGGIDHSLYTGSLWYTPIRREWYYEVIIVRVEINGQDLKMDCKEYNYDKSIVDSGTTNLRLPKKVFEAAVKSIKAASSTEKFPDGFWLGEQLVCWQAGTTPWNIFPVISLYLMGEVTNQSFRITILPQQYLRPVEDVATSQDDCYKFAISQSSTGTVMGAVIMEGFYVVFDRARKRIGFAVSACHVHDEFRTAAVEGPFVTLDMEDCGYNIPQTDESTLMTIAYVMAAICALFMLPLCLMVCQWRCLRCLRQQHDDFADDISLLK

Consider `C[C@]1(c2cc(NCc3cc(F)cc(F)c3)ccc2F)N=C(N)OC[C@@H]1F` [Example 56, (4R,5R)-4-[5-(3,5-Difluoro-benzylamino)-2-fluoro-phenyl]-5-fluoro-4-methyl-5,6-dihydro-4H-[1,3]oxazin-2-ylamine], for which the pIC50 on BACE1 is 6.10. As to `C[C@]1(c2cccc(OCCC(F)(F)F)c2)N=C(N)OCC1(F)F` [Example 58, (R)-5,5-Difluoro-4-methyl-4-[3-(3,3,3-trifluoro-propoxy)-phenyl]-5,6-dihydro-4H-[1,3]oxazin-2-ylamine], the pIC50 on BACE1 was 5.70. The same measure, in the same setting: the figure for `CC1(C)OC(N)=N[C@](C)(c2cc(-c3cc(C#N)ccc3Cl)ccc2F)C1(F)F` [Example 52, 3′-((R)-2-Amino-5,5-difluoro-4,6,6-trimethyl-5,6-dihydro-4H-[1,3]oxazin-4-yl)-6-chloro-4′-fluoro-biphenyl-3-carbonitrile] is 5.54; for `C[C@]1(c2cccc(OCC3CC3)c2)N=C(N)OCC1(F)F` [Example 59, (R)-4-(3-Cyclopropylmethoxy-phenyl)-5,5-difluoro-4-methyl-5,6-dihydro-4H-[1,3]oxazin-2-ylamine] it is 5.51. As to `CC1(C)OC(N)=N[C@](C)(c2cc(Nc3cccc(C(F)(F)F)n3)ccc2F)C1(F)F` [Example 47, (R)-5,5-Difluoro-4-[2-fluoro-5-(6-trifluoromethyl-pyridin-2-ylamino)-phenyl]-4,6,6-trimethyl-5,6-dihydro-4H-[1,3]oxazin-2-ylamine], the negative-log IC50 (pIC50) at BACE2 is 5.56; on BACE1 it was 5.38.

With `C[C@]1(c2cc(-c3cncc(Cl)c3)c(F)cc2F)N=C(N)OCC1(F)F` [Example 32, (R)-4-[5-(5-Chloro-pyridin-3-yl)-2,4-difluoro-phenyl]-5,5-difluoro-4-methyl-5,6-dihydro-4H-[1,3]oxazin-2-ylamine], the pIC50 at BACE1 is 6.06. On the same count and under the same terms, then `C[C@]1(c2cc(-c3nc4ccc(Cl)cc4o3)c(F)cc2F)N=C(N)OCC1(F)F` [Example 15, (R)-4-[5-(6-Chloro-benzooxazol-2-yl)-2,4-difluoro-phenyl]-5,5-difluoro-4-methyl-5,6-dihydro-4H-[1,3]oxazin-2-ylamine Hydrochloride], with 5.89; and `CC1(C)OC(N)=N[C@](C)(c2cc(NC3CCC(c4ccccc4)C3)ccc2F)C1(F)F` (mixture of isomers) [Example 49, (R)-5,5-Difluoro-4-[2-fluoro-5-((1RS,3RS)-3-phenyl-cyclopentylamino)-phenyl]-4,6,6-trimethyl-5,6-dihydro-4H-[1,3]oxazin-2-ylamine], with 5.92. `CCc1ccc(Cc2nc3ccc([C@@]4(C)N=C(N)OCC4(F)F)cc3[nH]2)cc1` [Example 55, (R)-4-[2-(4-Ethyl-benzyl)-3H-benzoimidazol-5-yl]-5,5-difluoro-4-methyl-5,6-dihydro-4H-[1,3]oxazin-2-ylamine]: on BACE1, the pIC50 was 5.84. The same measure, in the same setting: the figure for `C#Cc1cccc(-n2cc([C@@]3(C)N=C(N)OCC3(F)F)cn2)c1` [Example 61, (R)-4-[1-(3-Ethynyl-phenyl)-1H-pyrazol-4-yl]-5,5-difluoro-4-methyl-5,6-dihydro-4H-[1,3]oxazin-2-ylamine] is 6.14; for `C[C@]1(C2CC2C(=O)Nc2cccc3cc(Cl)cnc23)N=C(N)OCC1(F)F` (stereo in doubt) [Example 62, (1S,2S)-rel-2-((R)-2-Amino-5,5-difluoro-4-methyl-5,6-dihydro-4H-[1,3]oxazin-4-yl)-cyclopropanecarboxylic acid(3-chloro-quinolin-8-yl)-amide] it is 6.38; for `NC1=NC(c2cc(-c3cncc(Cl)c3)ccc2F)(C(F)F)CCO1` (stereo not drawn) [Example 53, 4-[5-(5-Chloro-pyridin-3-yl)-2-fluoro-phenyl]-4-difluoromethyl-5,6-dihydro-4H-[1,3]oxazin-2-ylamine] it is 6.30. Same read-out and setting: then `C[C@]1(c2cnn(-c3cccc(C#N)c3)c2)N=C(N)OCC1(F)F` [Example 60, 3-[4-((R)-2-Amino-5,5-difluoro-4-methyl-5,6-dihydro-4H-[1,3]oxazin-4-yl)-pyrazol-1-yl]-benzonitrile], with 5.34. With `C[C@]1([C@@H]2C[C@H]2C(=O)Nc2cccc3cc(Cl)cnc23)N=C(N)OCC1(F)F` [Example 63, (1R,2R)-((R)-2-Amino-5,5-difluoro-4-methyl-5,6-dihydro-4H-[1,3]oxazin-4-yl)-cyclopropanecarboxylic acid(3-chloro-quinolin-8-yl)-amide], the pIC50 at BACE2 was 5.87; on BACE1, 6.44. In the case of `C[C@]1(c2cc(-c3cncnc3)c(F)cc2F)N=C(N)OCC1(F)F` [Example 33, (R)-4-(2,4-Difluoro-5-pyrimidin-5-yl-phenyl)-5,5-difluoro-4-methyl-5,6-dihydro-4H-[1,3]oxazin-2-ylamine], the pIC50 on BACE1 is 6.42. On to `C[C@]1(c2cnn(-c3cccc(Br)c3)c2)N=C(N)OCC1(F)F` [Intermediate K7.1, (R)-4-[1-(3-bromo-phenyl)-1H-pyrazol-4-yl]-5,5-difluoro-4-methyl-5,6-dihydro-4H-[1,3]oxazin-2-ylamine], for which the pIC50 on BACE1 is 5.84. Same read-out and setting: then `NC1=N[C@@](c2cc(-c3cncc(Cl)c3)ccc2F)(C(F)F)CCO1` [Example 54B, (S)-4-[5-(5-Chloro-pyridin-3-yl)-2-fluoro-phenyl]-4-difluoromethyl-5,6-dihydro-4H-[1,3]oxazin-2-ylamine], with 6.66; and `C[C@]1([C@@H]2C[C@H]2C(=O)Nc2csc3cc(C#N)cnc23)N=C(N)OCC1(F)F` [Example 65, (1R,2R)-2-((R)-2-Amino-5,5-difluoro-4-methyl-5,6-dihydro-4H-[1,3]oxazin-4-yl)-cyclopropanecarboxylic acid(6-cyano-thieno[3,2-b]pyridin-3-yl)-amide], with 6.74; and `C[C@]1(c2cccc(OCC3CC3(F)F)c2)N=C(N)OCC1(F)F` (mixture of isomers) [Example 57, (R)-4-[5-((RS)-2,2-Difluoro-cyclopropylmethoxy)-phenyl]-5,5-difluoro-4-methyl-5,6-dihydro-4H-[1,3]oxazin-2-ylamine], with 5.43.
